Measured values reported in ChEMBL document CHEMBL1129180, “Phosphoramidate derivatives of 2,3-didehydro-2,3-dideoxyadenosine [d4A] have markedly improved anti-HIV potency and selectivity” (Bioorg Med Chem Lett, 1996).
In brackets after ≈: the same amount, converted by molar mass.

system: CCRF-CEM; test: Compound was evaluated for antiviral activity against HIV-1 (IIIB) infected CEM cells.; type: functional, cell-based; conditions: Homo sapiens

Row | EC50 [µM] | SMILES
1 | 0.006 | COC(=O)C(C)NP(=O)(OCC1C=CC(n2cnc3c(N)ncnc32)O1)Oc1ccccc1 (configuration not stated)
2 | 0.008 | CC(NP(=O)(OCC1C=CC(n2cnc3c(N)ncnc32)O1)Oc1ccccc1)C(=O)OCc1ccccc1 (configuration not stated)
3 | 20 | Nc1ncnc2c1ncn2[C@H]1C=C[C@@H](CO)O1

system: not listed separately; test: Compound was evaluated cytotoxicity against moloney sarcoma virus (MSV) infected C3H cell cultures.; type: functional; conditions: Mus musculus

Row | SMILES | CC50 [µM]
4 | COC(=O)C(C)NP(=O)(OCC1C=CC(n2cnc3c(N)ncnc32)O1)Oc1ccccc1 (configuration not stated) | > 100
5 | Cc1cn([C@H]2C[C@H](N=[N+]=[N-])[C@@H](CO)O2)c(=O)[nH]c1=O [ZIDOVUDINE] | > 20
6 | CC(NP(=O)(OCC1C=CC(n2cnc3c(N)ncnc32)O1)Oc1ccccc1)C(=O)OCc1ccccc1 (configuration not stated) | > 4
7 | Nc1ncnc2c1ncn2[C@H]1C=C[C@@H](CO)O1 | > 100

system: not listed separately; test: Compound was evaluated minimum inhibitory concentration against moloney sarcoma virus (MSV) infected C3H cell cultures.; type: functional; conditions: Mus musculus

Row | MIC [µM] | SMILES
8 | 9.4 (≈ 4.46 µg/mL) | COC(=O)C(C)NP(=O)(OCC1C=CC(n2cnc3c(N)ncnc32)O1)Oc1ccccc1 (configuration not stated)
9 | 0.02 (≈ 0.00534 µg/mL) | Cc1cn([C@H]2C[C@H](N=[N+]=[N-])[C@@H](CO)O2)c(=O)[nH]c1=O [ZIDOVUDINE]
10 | 0.2 (≈ 0.11 µg/mL) | CC(NP(=O)(OCC1C=CC(n2cnc3c(N)ncnc32)O1)Oc1ccccc1)C(=O)OCc1ccccc1 (configuration not stated)
11 | 31 (≈ 7.23 µg/mL) | Nc1ncnc2c1ncn2[C@H]1C=C[C@@H](CO)O1

system: CCRF-CEM; test: Compound was evaluated for antiviral activity against HIV-2 (ROD) infected CEM cells.; type: functional, cell-based; conditions: Homo sapiens

Row | EC50 [µM] | SMILES
12 | 0.018 | COC(=O)C(C)NP(=O)(OCC1C=CC(n2cnc3c(N)ncnc32)O1)Oc1ccccc1 (configuration not stated)
13 | 0.008 | CC(NP(=O)(OCC1C=CC(n2cnc3c(N)ncnc32)O1)Oc1ccccc1)C(=O)OCc1ccccc1 (configuration not stated)
14 | 20 | Nc1ncnc2c1ncn2[C@H]1C=C[C@@H](CO)O1

system: CCRF-CEM; test: Compound was evaluated for cytotoxic activity against CEM cells.; type: functional; conditions: Homo sapiens

Row | SMILES | CC50 [µM]
15 | COC(=O)C(C)NP(=O)(OCC1C=CC(n2cnc3c(N)ncnc32)O1)Oc1ccccc1 (configuration not stated) | 3.8
16 | Cc1cn([C@H]2C[C@H](N=[N+]=[N-])[C@@H](CO)O2)c(=O)[nH]c1=O [ZIDOVUDINE] | > 100
17 | CC(NP(=O)(OCC1C=CC(n2cnc3c(N)ncnc32)O1)Oc1ccccc1)C(=O)OCc1ccccc1 (configuration not stated) | 1.9
18 | Nc1ncnc2c1ncn2[C@H]1C=C[C@@H](CO)O1 | 91

system: not listed separately; test: Ratio of CC50/EC50 was calculated; type: functional; conditions: not given

Row | SMILES | Selectivity index
19 | COC(=O)C(C)NP(=O)(OCC1C=CC(n2cnc3c(N)ncnc32)O1)Oc1ccccc1 (configuration not stated) | 633
20 | Cc1cn([C@H]2C[C@H](N=[N+]=[N-])[C@@H](CO)O2)c(=O)[nH]c1=O [ZIDOVUDINE] | > 20000
21 | CC(NP(=O)(OCC1C=CC(n2cnc3c(N)ncnc32)O1)Oc1ccccc1)C(=O)OCc1ccccc1 (configuration not stated) | 237
22 | Nc1ncnc2c1ncn2[C@H]1C=C[C@@H](CO)O1 | 4.5
